This test has as its system PANC-1. In words: Cytotoxicity against human PANC1 cells in nutrient deprived medium after 24 hrs. The test is classed as functional.
Take `O=C1C[C@@H](c2ccccc2)Oc2cc(O)c(O)c(O)c21`: the CD100 is over 100 µM.

`COc1ccc2c(C)c(-c3ccc(O)cc3O)oc2c1` gave a CD100 of 50 µM.

`COc1ccc([C@H]2COc3cc(O)ccc3C2=O)c(OC)c1O` came in with a CD100 of over 100 µM.

Compound `O=C(/C=C/c1ccc(O)cc1)c1ccc(O)cc1O` [ISOLIQUIRITIGENIN] displayed a CD100 of over 100 µM.

`COc1c(O)cc2c(c1O)C(=O)[C@H](O)[C@@H](c1ccccc1)O2` [ALNUSTINOL]: the CD100 is over 100 µM.

For `O=C1C[C@@H](c2ccc(O)cc2)Oc2cc(O)cc(O)c21` [NARINGENIN], the CD100 is over 100 µM.

Take `COc1cc2c(cc1O)O[C@H](c1ccccc1)CC2=O`: the CD100 came to 50 µM.

For the compound `COc1ccc([C@H]2COc3cc(O)cc(O)c3C2=O)c(O)c1`, the CD100 is over 100 µM.

As to `COc1ccc(-c2coc3cc(O)ccc3c2=O)c(O)c1` [XENOGNOSIN B], the CD100 was over 100 µM.

`COc1ccc(-c2coc3cc(O)ccc3c2=O)cc1` [FORMONONETIN] came in with a CD100 of over 100 µM.

For `COc1cc(O)ccc1[C@H]1COc2cc(O)ccc2C1`, the CD100 was over 100 µM.

In turn, `O=c1[nH]cc(F)c(=O)[nH]1` [FLUOROURACIL] had a CD100 of over 100 µM.

`O=C1c2ccc(O)cc2OC1(O)Cc1ccc(O)cc1` (centres undefined) had a CD100 of over 100 µM.

`O=C1C[C@@H](c2ccccc2)Oc2cc(O)ccc21` gave a CD100 of over 100 µM.

`COc1ccc([C@H]2COc3cc(OC)ccc3C2)c(O)c1` gave a CD100 of 25 µM.

In the case of `O=C(c1ccc(O)cc1O)[C@@H](O)Cc1ccc(O)cc1`, the CD100 was over 100 µM.

The compound `CCO[C@@]12COc3cc(O)ccc3[C@@H]1Oc1cc(OC)ccc12` showed a CD100 of over 100 µM.

Turning to `O=C(/C=C/c1ccccc1)c1ccc(O)cc1O` [2',4'-DIHYDROXYCHALCONE], the CD100 was over 100 µM.

Regarding `C=C[C@@H](c1ccccc1)c1cc(O)c(OC)cc1OC`, the CD100 is over 100 µM.

`O=C1C[C@@H](c2ccc(O)cc2)Oc2cc(O)ccc21` [LIQUIRTIGENIN] had a CD100 of over 100 µM.

For the compound `CC(=O)O[C@H]1C(=O)[C@@]2(C)[C@H]([C@H](OC(=O)c3ccccc3)[C@]3(O)C[C@H](OC(=O)[C@H](O)[C@@H](NC(=O)c4ccccc4)c4ccccc4)C(C)=C1C3(C)C)[C@]1(OC(C)=O)CO[C@@H]1C[C@@H]2O` [PACLITAXEL], the CD100 is over 100 µM.

Compound `COc1ccc(-c2coc3cc(O)cc(O)c3c2=O)cc1` [BIOCHANIN] returned a CD100 of over 100 µM.

In turn, `COc1cc(C[C@H]2C(=O)OC[C@@H]2Cc2ccc(OC)c(OC)c2)ccc1O` [ARCTIGENIN] registered a CD100 of 1 µM.

`COc1cc2c(cc1O)O[C@H](c1ccccc1)[C@@H](O)C2=O`: the CD100 is over 100 µM.

`COc1cc([C@H]2OC[C@H]3[C@@H]2CO[C@@H]3c2cc(OC)c(O)c(OC)c2)cc(OC)c1O` [SYRINGARESINOL]: the CD100 was over 100 µM.

`COc1ccc([C@H]2COc3cc(O)ccc3C2=O)c(O)c1`: the CD100 was over 100 µM.

In turn, `COc1c(O)cc2oc(-c3ccccc3)c(O)c(=O)c2c1O` [ALNUSIN] returned a CD100 of over 100 µM.

Compound `COc1ccc2c(c1)O[C@H]1c3ccc(O)c(O)c3OC[C@@H]21` registered a CD100 of 25 µM.

On to `COc1cc2c(cc1OC)[C@@H]1COc3cc(O)ccc3[C@@H]1O2` [SECUNDIFLOROL I], for which the CD100 is over 100 µM.

`COc1ccc([C@H]2COc3cc(O)ccc3C2)c(OC)c1O` [MUCRONULATOL] showed a CD100 of over 100 µM.

The compound `COc1ccc2c(c1O)O[C@@H]1c3ccc(O)cc3OC[C@H]21` had a CD100 of 50 µM.

Take `COc1ccc([C@H]2COc3cc(O)ccc3C2)c(O)c1`: the CD100 is over 100 µM.

The compound `O=C1c2ccc(O)cc2O[C@H](c2ccccc2)[C@H]1O` displayed a CD100 of over 100 µM.

Turning to `COc1cc(O)ccc1C(=O)/C=C/c1ccc(O)cc1`, the CD100 was over 100 µM.

For `O=C1c2ccc(O)cc2O[C@H](c2ccc(O)cc2)[C@H]1O` [GARBANZOL], the CD100 was over 100 µM.

In turn, `O=c1c(-c2ccc(O)cc2)coc2cc(O)ccc12` [DAIDZEIN] registered a CD100 of over 100 µM.

Consider `COc1ccc(-c2coc3cc(O)ccc3c2=O)cc1O` [CALYCOSIN], for which the CD100 is over 100 µM.

Consider `COc1c(O)cc2c(c1O)C(=O)C[C@@H](c1ccccc1)O2` [DIHYDROOROXYLIN A], for which the CD100 was over 100 µM.

`COc1ccc(-c2coc3cc(O)cc(O)c3c2=O)cc1O` [PRATENSEIN] registered a CD100 of over 100 µM.

Compound `COc1ccc(-c2coc3cc(O)cc(O)c3c2=O)c(O)c1` yielded a CD100 of over 100 µM.

Turning to `COc1ccc2c(c1)O[C@@H]1c3ccc(O)cc3OC[C@H]21`, the CD100 was determined as 50 µM.

`COc1ccc([C@H]2OC[C@H]3[C@@H]2CO[C@@H]3c2ccc(OC)c(OC)c2)cc1OC` [(+)-EUDESMIN] came in with a CD100 of over 100 µM.

`COc1ccc2c(c1)O[C@H]1c3ccc(O)c(OC)c3OC[C@@H]21` displayed a CD100 of over 100 µM.

`COc1cc([C@@H]2OC[C@@H]3[C@H]2CO[C@H]3c2ccc(O)c(OC)c2)ccc1O` [(+)-PINORESINOL] had a CD100 of over 100 µM.

The values above are taken from ChEMBL document CHEMBL1140768, “Constituents of Brazilian red propolis and their preferential cytotoxic activity against human pancreatic PANC-1 cancer cell line in nutrient-deprived condition” (2008).
